Where two headings read alike, the source gives them in different places.

For this data set the following is noted: mouse, in vivo.

Experimental: Mice were injected with the various emulsions. The mice were killed at intervals thereafter, the liver and spleen analyzed, and the percentage of original amount of PF material injected and still in the liver and spleen was determined.

perfluoromethylpentane: the body retention entry is recorded as “lack body retention characteristics”. In addition, where the note is “2880 min”, the “% FC (Of Injected Dose) in LIVER” value is listed as 15% and the “% FC (Of Injected Dose) in SPLEEN” value was found to be 1.4%. Besides, for the setting “10080 min”, the “% FC (Of Injected Dose) in LIVER” value came out at 12% and the “% FC (Of Injected Dose) in SPLEEN” value is recorded as 6%. Also, where the note is “20160 min”, the “% FC (Of Injected Dose) in LIVER” value came to 9.3% and the “% FC (Of Injected Dose) in SPLEEN” value was 9.2%. For the same substance, under “41760 min”, the “% FC (Of Injected Dose) in LIVER” value is given as 2.3% and the “% FC (Of Injected Dose) in SPLEEN” value came to 2.7%.

For the origin of these results see US4110474A, “Tetramethylpentane blood substitutes” (Suntech, Inc., priority 1977, dated 1978).
